Laboratory results published in ChEMBL document CHEMBL4627251, “Identification of potent pyrazole based APELIN receptor (APJ) agonists” (Bioorg Med Chem, 2020).

The compounds below were run against T1, Type-1 angiotensin II receptor (Homo sapiens, UniProt P30556) (assay: Agonist activity at human AGTR1 stably expressed in CHO cells assessed as increase in intracellular calcium mobilization measured at 1 sec intervals for 90 sec by calcium 5 dye based FLIPR assay).
T1 sequence (P30556 whole entry): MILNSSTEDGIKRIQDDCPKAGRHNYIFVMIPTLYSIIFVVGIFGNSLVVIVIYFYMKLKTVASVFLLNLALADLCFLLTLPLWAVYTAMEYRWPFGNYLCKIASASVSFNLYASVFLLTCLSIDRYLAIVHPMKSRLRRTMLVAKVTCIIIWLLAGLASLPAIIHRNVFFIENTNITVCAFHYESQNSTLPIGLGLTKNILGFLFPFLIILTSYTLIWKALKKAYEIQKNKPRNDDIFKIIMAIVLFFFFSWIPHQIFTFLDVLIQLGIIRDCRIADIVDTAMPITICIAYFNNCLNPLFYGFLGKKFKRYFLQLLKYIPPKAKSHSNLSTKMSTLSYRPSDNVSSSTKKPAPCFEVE
Format: functional, cell-based
With `CCC(O)CNC(=O)C[C@H](CCC1CCCCC1)NC(=O)c1cc(-c2c(OC)cccc2OC)n(CC(C)C)n1` (some centres undefined) the EC50 was > 10 µM. For `CCC(=O)CNC(=O)[C@H](CCc1ccccc1)NC(=O)c1cc(-c2c(OC)cccc2OC)n(CC(C)C)n1`, the EC50 was > 10 µM. `COC(=O)CN(C)C(=O)[C@H](CCc1ccccc1)NC(=O)c1cc(-c2c(OC)cccc2OC)n(CC(C)C)n1` was tested, and the EC50 was > 10 µM. With `COc1cccc(OC)c1-c1cc(C(=O)N[C@@H](CCc2ccccc2)CC(=O)NC2CCC2)nn1CC(C)C` the EC50 was > 10 µM. With `COc1cccc(OC)c1-c1cc(C(=O)N[C@@H](CCC2CCCCC2)CC(=O)O)nn1-c1ccc(F)cc1` the EC50 was > 10 µM. In the case of `COc1cccc(OC)c1-c1cc(C(=O)N[C@@H](CCC2CCCCC2)CC(=O)NC2CCC2)nn1CC(C)C`, the EC50 is reported as > 10 µM. For `COc1cccc(OC)c1-c1cc(C(=O)N[C@@H](CCC2CCCCC2)CC(=O)NC2CCC2)nn1C1CCCC1`, the EC50 was > 10 µM. `CCCn1nc(C(=O)N[C@@H](CCC2CCCCC2)CC(=O)NC2CCC2)cc1-c1c(OC)cccc1OC` was tested, and the EC50 was > 10 µM. For `CCC(=O)CNC(=O)C[C@H](CCC1CCCCC1)NC(=O)c1cc(-c2c(OC)cccc2OC)n(CC(C)C)n1`, the EC50 was > 10 µM. With `COc1cccc(OC)c1-c1cc(C(=O)N[C@@H](CCC2CCCCC2)CC(=O)NC2CCC2)nn1C1CCCCC1` the EC50 was > 10 µM. For `CC[C@@H](O)CNC(=O)C[C@H](CCC1CCCCC1)NC(=O)c1cc(-c2c(OC)cccc2OC)n(CC(C)C)n1`, the EC50 was > 10 µM.

These compounds were tested against T2, Apelin receptor (Homo sapiens, UniProt P35414).
T2 sequence (P35414 whole entry): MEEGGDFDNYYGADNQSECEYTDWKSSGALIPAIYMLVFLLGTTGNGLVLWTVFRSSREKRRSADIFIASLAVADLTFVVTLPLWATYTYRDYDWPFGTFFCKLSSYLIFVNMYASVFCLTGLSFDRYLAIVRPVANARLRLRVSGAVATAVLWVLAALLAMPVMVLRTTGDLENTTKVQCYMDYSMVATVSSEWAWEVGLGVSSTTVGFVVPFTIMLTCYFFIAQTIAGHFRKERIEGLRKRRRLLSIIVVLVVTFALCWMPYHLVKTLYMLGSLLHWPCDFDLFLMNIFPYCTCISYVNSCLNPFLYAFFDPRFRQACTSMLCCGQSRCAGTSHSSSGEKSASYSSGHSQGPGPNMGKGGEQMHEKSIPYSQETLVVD
Description: Agonist activity at human APJ receptor stably expressed in CHO cells assessed as inhibition of forskolin-induced cAMP accumulation measured after 30 mins by Eu-cAMP tracer based TR-FRET assay
`COc1cccc(OC)c1-c1cc(C(=O)N[C@@H](CCc2ccccc2)CC(=O)O)nn1CC(C)C` was tested, and the EC50 was > 10 µM.

Target: T2, Apelin receptor
Remark: another data set of the same source
Description: Agonist activity at human APJ receptor stably expressed in CHO cells co-expressing Galphaq16 assessed as increase in intracellular calcium mobilization measured at 1 sec intervals for 90 secs by calcium 5 dye based FLIPR assay
In the case of `COc1cccc(OC)c1-c1cc(C(=O)N[C@@H](CCc2ccccc2)CC(=O)O)nn1CC(C)C`, the EC50 is reported as > 10 µM.

Target: T2, Apelin receptor
Remark: another data set of the same source
Description: Agonist activity at human APJ receptor stably expressed in CHOK1 cells assessed as induction of beta-arrestin 2 recruitment incubated for 90 mins by PathHunter assay
`COc1cccc(OC)c1-c1cc(C(=O)N[C@@H](CCc2ccccc2)CC(=O)O)nn1CC(C)C` was tested, and the EC50 was > 10 µM.
